The source of these data is patent publication US20240368118A1, “CEREBLON BINDING COMPOUNDS, COMPOSITIONS THEREOF, AND METHODS OF TREATMENT THEREWITH” (CELGENE CORPORATION, priority 2021, published 2024).

The assay has as its target T1, AR (Homo sapiens, UniProt P10275).
T1 construct: endogenous in cells; host or cells: VCaP cells
T1 sequence (P10275 1-920): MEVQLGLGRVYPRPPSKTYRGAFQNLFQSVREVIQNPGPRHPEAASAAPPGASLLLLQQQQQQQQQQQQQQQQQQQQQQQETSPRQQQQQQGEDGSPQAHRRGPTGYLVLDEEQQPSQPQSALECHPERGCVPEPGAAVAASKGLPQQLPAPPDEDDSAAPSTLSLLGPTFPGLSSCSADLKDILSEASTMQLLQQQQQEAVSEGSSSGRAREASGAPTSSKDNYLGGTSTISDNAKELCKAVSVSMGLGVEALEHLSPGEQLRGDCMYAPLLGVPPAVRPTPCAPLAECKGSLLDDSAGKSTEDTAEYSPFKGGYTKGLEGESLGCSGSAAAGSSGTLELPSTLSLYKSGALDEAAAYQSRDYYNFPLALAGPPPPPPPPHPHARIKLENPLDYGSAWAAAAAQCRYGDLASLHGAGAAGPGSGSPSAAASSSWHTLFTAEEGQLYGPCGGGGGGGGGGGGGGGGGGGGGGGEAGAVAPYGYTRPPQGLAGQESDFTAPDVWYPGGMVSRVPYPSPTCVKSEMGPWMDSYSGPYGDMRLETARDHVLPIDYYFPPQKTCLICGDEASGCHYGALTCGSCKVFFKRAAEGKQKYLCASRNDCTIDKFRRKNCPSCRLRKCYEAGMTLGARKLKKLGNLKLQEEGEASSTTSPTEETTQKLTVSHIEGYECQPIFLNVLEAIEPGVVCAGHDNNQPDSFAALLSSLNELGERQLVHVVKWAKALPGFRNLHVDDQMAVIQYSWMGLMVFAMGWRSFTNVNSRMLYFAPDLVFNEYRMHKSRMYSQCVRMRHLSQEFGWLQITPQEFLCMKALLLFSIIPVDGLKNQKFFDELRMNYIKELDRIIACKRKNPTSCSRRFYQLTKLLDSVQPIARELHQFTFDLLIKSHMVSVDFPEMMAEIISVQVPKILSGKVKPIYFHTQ
Briefly: VCAP AR Degradation Assay. Type of assay: cell-based. To be noted: VCaP cells, 24 h; for DC50: AR ELISA, concentration when AR level = 50% of DMSO control; for Ymin: lowest AR level normalized to DMSO control, given as numbers. A digest of the protocol: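 VCaP cells in DMEM with 8% FBS treated 24 h at 37° C with a 10-point 1:3 series (top 5 μM final; 0.1% DMSO control). Total AR measured in lysates by sandwich ELISA and normalized to DMSO; DC50/EC50 from four-parameter logistic fit, with the lowest normalized AR level reported as Y.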
(In general: An ELISA detects its analyte on a solid surface through an enzyme-linked reagent.)

Structures are written as SMILES.

In the case of `C[C@@H]1C[C@H](OCC[C@H]2CC[C@H](N3C(=S)N(c4cnc(C#N)c(C(F)(F)F)c4)C(=O)C3(C)C)CC2)C[C@H](C)N1CC(=O)Nc1ccc(C2CCC(=O)NC2=O)cc1` (stereo partly drawn) [Cmpd 39, 2-((2R,4r,6S)-4-(2-((trans)-4-(3-(6-Cyano-5-(trifluoromethyl)pyridin-3-yl)-5,5-dimethyl-4-oxo-2-thioxoimidazolidin-1-yl)cyclohexyl)ethoxy)-2,6-dimethylpiperidin-1-yl)-N-(4-(2,6-dioxopiperidin-3-yl)phenyl)acetamide], the DC50 – broadly, the concentration at which degradation of the target reaches its halfway point – is no more than 5 nM and the Ymin is 14 % of DMSO control.

Take `C[C@@H]1C[C@H](OCC[C@H]2CC[C@H](N3C(=S)N(c4ccc(C#N)c(C(F)(F)F)c4)C(=O)C3(C)C)CC2)C[C@H](C)N1CC(=O)Nc1ccc(C2CCC(=O)NC2=O)cc1` (stereo partly drawn) [Cmpd 40, 2-((2R,4r,6S)-4-(2-((trans)-4-(3-(4-Cyano-3-(trifluoromethyl)phenyl)-5,5-dimethyl-4-oxo-2-thioxoimidazolidin-1-yl)cyclohexyl)ethoxy)-2,6-dimethylpiperidin-1-yl)-N-(4-(2,6-dioxopiperidin-3-yl)phenyl)acetamide]: the DC50 lay within 5 to 15 nM and the Ymin was 21 % of DMSO control.

In the case of `C[C@@H]1C[C@H](OCCO[C@H]2CC[C@H](N3C(=S)N(c4cnc(C#N)c(C(F)(F)F)c4)C(=O)C3(C)C)CC2)C[C@H](C)N1CC(=O)Nc1ccc(C2CCC(=O)NC2=O)cc1` (stereo partly drawn) [Cmpd 41, 2-((2R,4r,6S)-4-(2-(((trans)-4-(3-(6-Cyano-5-(trifluoromethyl)pyridin-3-yl)-5,5-dimethyl-4-oxo-2-thioxoimidazolidin-1-yl)cyclohexyl)oxy)ethoxy)-2,6-dimethylpiperidin-1-yl)-N-(4-(2,6-dioxopiperidin-3-yl)phenyl)acetamide], the DC50 was no more than 5 nM and the Ymin is 17 % of DMSO control.

Regarding `C[C@@H]1C[C@H](OCCO[C@H]2CC[C@H](N3C(=S)N(c4ccc(C#N)c(C(F)(F)F)c4)C(=O)C3(C)C)CC2)C[C@H](C)N1CC(=O)Nc1ccc(C2CCC(=O)NC2=O)cc1` (stereo partly drawn) [Cmpd 42, 2-((2R,4r,6S)-4-(2-(((trans)-4-(3-(4-Cyano-3-(trifluoromethyl)phenyl)-5,5-dimethyl-4-oxo-2-thioxoimidazolidin-1-yl)cyclohexyl)oxy)ethoxy)-2,6-dimethylpiperidin-1-yl)-N-(4-(2,6-dioxopiperidin-3-yl)phenyl)acetamide], the DC50 was in the range of 5 to 15 nM and the Ymin is recorded as 19 % of DMSO control.

`CC1(C)C(=O)N(c2ccc(C#N)c(C(F)(F)F)c2)C(=S)N1[C@H]1CC[C@H](OCCC2CCN(CC(=O)Nc3ccc(C4CCC(=O)NC4=O)cc3)CC2(F)F)CC1` (stereo partly drawn) [Cmpd 43, 2-(4-(2-(((trans)-4-(3-(4-Cyano-3-(trifluoromethyl)phenyl)-5,5-dimethyl-4-oxo-2-thioxoimidazolidin-1-yl)cyclohexyl)oxy)ethyl)-3,3-difluoropiperidin-1-yl)-N-(4-(2,6-dioxopiperidin-3-yl)phenyl)acetamide]: the DC50 is no more than 5 nM and the Ymin is 18 % of DMSO control.

On to `CC1(C)C(=O)N(c2cnc(C#N)c(C(F)(F)F)c2)C(=S)N1[C@H]1CC[C@H](OCCC2CCN(CC(=O)Nc3ccc(C4CCC(=O)NC4=O)cc3)CC2(F)F)CC1` (stereo partly drawn) [Cmpd 44, 2-(4-(2-(((trans)-4-(3-(6-Cyano-5-(trifluoromethyl)pyridin-3-yl)-5,5-dimethyl-4-oxo-2-thioxoimidazolidin-1-yl)cyclohexyl)oxy)ethyl)-3,3-difluoropiperidin-1-yl)-N-(4-(2,6-dioxopiperidin-3-yl)phenyl)acetamide], for which the DC50 is no more than 5 nM and the Ymin was 12 % of DMSO control.
